Measurements taken from ChEMBL document CHEMBL1201862, “PubChem BioAssay data set” (2004).
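Tested at 5 concentrations; 48 h exposure; 96-well plates; endpoints linearly interpolated, else capped at highest concentration. The concentration for 50% growth inhibition is given as GI50.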 Active and inactive are the calls of the source. Cut-off read from the data, not from the text of the source: active = GI50 up to about 1.1 µM and inactive = higher.

Experiments:
Test in all cases: growth of human tumour cells (NCI), 48 h
786-0 = system: 786-0
A498 = system: A498
A549 = system: A549
ACHN = system: ACHN
BT-549 = system: BT-549
CAKI-1 = system: CAKI-1
CCRF-CEM = system: CCRF-CEM
COLO 205 = system: COLO 205
DU-145 = system: DU-145
EKVX = system: EKVX
HCC 2998 = system: HCC 2998
HCT-116 = system: HCT-116
HCT-15 = system: HCT-15
HL-60 = system: HL-60
HOP-62 = system: HOP-62
HOP-92 = system: HOP-92
HT-29 = system: HT-29
Hs-578T = system: Hs-578T
IGROV-1 = system: IGROV-1
K562 = system: K562
KM12 = system: KM12
LOX IMVI = system: LOX IMVI
M14 = system: M14
MCF7 = system: MCF7
MDA-MB-231 = system: MDA-MB-231
MDA-MB-435 = system: MDA-MB-435
MDA-N = system: MDA-N
MOLT-4 = system: MOLT-4
Malme-3M = system: Malme-3M
NCI-H226 = system: NCI-H226
NCI-H23 = system: NCI-H23
NCI-H460 = system: NCI-H460
NCI-H522 = system: NCI-H522
NCI/ADR-RES = system: NCI/ADR-RES
OVCAR-3 = system: OVCAR-3
OVCAR-4 = system: OVCAR-4
OVCAR-5 = system: OVCAR-5
OVCAR-8 = system: OVCAR-8
PC-3 = system: PC-3
RPMI-8226 = system: RPMI-8226
RXF 393 = system: RXF 393
SF-268 = system: SF-268
SF-295 = system: SF-295
SF-539 = system: SF-539
SK-MEL-28 = system: SK-MEL-28
SK-MEL-2 = system: SK-MEL-2
SK-MEL-5 = system: SK-MEL-5
SK-OV-3 = system: SK-OV-3
SN12C = system: SN12C
SNB-19 = system: SNB-19
SNB-75 = system: SNB-75
SR = system: SR
SW-620 = system: SW-620
T47D = system: T47D
TK-10 = system: TK-10
U-251 = system: U-251
UACC-257 = system: UACC-257
UACC-62 = system: UACC-62
UO-31 = system: UO-31

CC1CC[C@@]2(OC1)OC1C[C@H]3[C@@H]4CC=C5C[C@@H](OC6OC(CO)C(OC7OC(CO)C(O)C(O)C7O)C(O)C6OC6OC(C)C(O)C(O)C6O)CC[C@]5(C)[C@H]4CC[C@]3(C)C1[C@@H]2C (some centres undefined)
GI50 (786-0): 0.49 µM (active) | GI50 (A498): 0.611 µM (active) | GI50 (A549): 0.746 µM (active) | GI50 (ACHN): 1.24 µM (inactive) | GI50 (BT-549): 0.463 µM (active) | GI50 (CAKI-1): 0.76 µM (active) | GI50 (CCRF-CEM): 0.617 µM (active) | GI50 (COLO 205): 0.526 µM (active) | GI50 (DU-145): 0.476 µM (active) | GI50 (EKVX): 0.544 µM (active) | GI50 (HCC 2998): 0.484 µM (active) | GI50 (HCT-116): 0.838 µM (active) | GI50 (HCT-15): 3.52 µM | GI50 (HL-60): 0.753 µM (active) | GI50 (HOP-62): 0.593 µM (active) | GI50 (HOP-92): 0.729 µM (active) | GI50 (HT-29): 0.475 µM (active) | GI50 (Hs-578T): 0.714 µM (active) | GI50 (IGROV-1): 0.516 µM (active) | GI50 (K562): 0.466 µM (active) | GI50 (KM12): 0.547 µM (active) | GI50 (LOX IMVI): 0.462 µM (active) | GI50 (M14): 0.479 µM (active) | GI50 (MCF7): 0.587 µM (active) | GI50 (MDA-MB-231): 0.435 µM (active) | GI50 (MDA-MB-435): 0.558 µM (active) | GI50 (MDA-N): 0.863 µM (active) | GI50 (MOLT-4): 0.434 µM (active) | GI50 (Malme-3M): 0.634 µM (active) | GI50 (NCI-H226): 0.873 µM (active) | GI50 (NCI-H23): 0.783 µM (active) | GI50 (NCI-H460): 0.685 µM (active) | GI50 (NCI-H522): 0.998 µM (active) | GI50 (NCI/ADR-RES): 2.07 µM (inactive) | GI50 (OVCAR-3): 0.643 µM (active) | GI50 (OVCAR-4): 1.53 µM (inactive) | GI50 (OVCAR-5): 1.42 µM (inactive) | GI50 (OVCAR-8): 0.659 µM (active) | GI50 (PC-3): 0.469 µM (active) | GI50 (RPMI-8226): 0.526 µM (active) | GI50 (RXF 393): 0.431 µM (active) | GI50 (SF-268): 0.593 µM (active) | GI50 (SF-295): 1.94 µM (inactive) | GI50 (SF-539): 0.491 µM (active) | GI50 (SK-MEL-28): 0.53 µM (active) | GI50 (SK-MEL-2): 0.759 µM (active) | GI50 (SK-MEL-5): 0.543 µM (active) | GI50 (SK-OV-3): 3.3 µM (inactive) | GI50 (SN12C): 0.635 µM (active) | GI50 (SNB-19): 1.2 µM (inactive) | GI50 (SNB-75): 2.07 µM (inactive) | GI50 (SR): 0.402 µM (active) | GI50 (SW-620): 0.624 µM (active) | GI50 (T47D): 0.513 µM (active) | GI50 (TK-10): 1.04 µM (active) | GI50 (U-251): 0.493 µM (active) | GI50 (UACC-257): 0.526 µM (active) | GI50 (UACC-62): 0.469 µM (active) | GI50 (UO-31): 0.48 µM (active)

COP(=O)(OC)C1=c2c(C)noc2=C2C=COC2C1=O (centres undefined)
GI50 (786-0): > 100 µM (inactive) | GI50 (A498): > 100 µM (inactive) | GI50 (A549): > 100 µM (inactive) | GI50 (ACHN): > 100 µM (inactive) | GI50 (BT-549): > 100 µM (inactive) | GI50 (CAKI-1): > 100 µM (inactive) | GI50 (CCRF-CEM): > 100 µM (inactive) | GI50 (COLO 205): > 100 µM (inactive) | GI50 (DU-145): > 100 µM (inactive) | GI50 (EKVX): > 100 µM (inactive) | GI50 (HCC 2998): > 100 µM (inactive) | GI50 (HCT-116): > 100 µM (inactive) | GI50 (HCT-15): > 100 µM | GI50 (HL-60): > 100 µM (inactive) | GI50 (HOP-62): > 100 µM (inactive) | GI50 (HOP-92): 63.4 µM (inactive) | GI50 (HT-29): > 100 µM (inactive) | GI50 (Hs-578T): 45.9 µM (inactive) | GI50 (IGROV-1): > 100 µM (inactive) | GI50 (K562): > 100 µM (inactive) | GI50 (KM12): > 100 µM (inactive) | GI50 (LOX IMVI): > 100 µM (inactive) | GI50 (M14): > 100 µM (inactive) | GI50 (MCF7): > 100 µM (inactive) | GI50 (MDA-MB-231): 56.1 µM (inactive) | GI50 (MDA-MB-435): > 100 µM (inactive) | GI50 (MDA-N): > 100 µM (inactive) | GI50 (MOLT-4): > 100 µM (inactive) | GI50 (Malme-3M): > 100 µM (inactive) | GI50 (NCI-H226): > 100 µM (inactive) | GI50 (NCI-H23): > 100 µM (inactive) | GI50 (NCI-H522): > 100 µM (inactive) | GI50 (NCI/ADR-RES): > 100 µM (inactive) | GI50 (OVCAR-3): > 100 µM (inactive) | GI50 (OVCAR-4): > 100 µM (inactive) | GI50 (OVCAR-5): > 100 µM (inactive) | GI50 (OVCAR-8): > 100 µM (inactive) | GI50 (PC-3): > 100 µM (inactive) | GI50 (RPMI-8226): > 100 µM (inactive) | GI50 (RXF 393): > 100 µM (inactive) | GI50 (SF-268): > 100 µM (inactive) | GI50 (SF-295): > 100 µM (inactive) | GI50 (SF-539): > 100 µM (inactive) | GI50 (SK-MEL-2): > 100 µM (inactive) | GI50 (SK-MEL-5): > 100 µM (inactive) | GI50 (SK-OV-3): > 100 µM (inactive) | GI50 (SN12C): > 100 µM (inactive) | GI50 (SNB-19): > 100 µM (inactive) | GI50 (SNB-75): 94.6 µM (inactive) | GI50 (SR): > 100 µM (inactive) | GI50 (SW-620): > 100 µM (inactive) | GI50 (T47D): > 10 µM (inactive) | GI50 (TK-10): > 100 µM (inactive) | GI50 (U-251): > 100 µM (inactive) | GI50 (UACC-257): > 100 µM (inactive) | GI50 (UACC-62): > 100 µM (inactive) | GI50 (UO-31): > 100 µM (inactive)

CC(C)=CCC/C(=C\CC/C(=C\CCc1ccoc1)C(=O)O)C(=O)O
GI50 (786-0): > 100 µM (inactive) | GI50 (A498): > 100 µM (inactive) | GI50 (A549): > 100 µM (inactive) | GI50 (ACHN): > 100 µM (inactive) | GI50 (BT-549): > 100 µM (inactive) | GI50 (CAKI-1): > 100 µM (inactive) | GI50 (CCRF-CEM): > 100 µM (inactive) | GI50 (COLO 205): > 100 µM (inactive) | GI50 (DU-145): > 100 µM (inactive) | GI50 (EKVX): > 100 µM (inactive) | GI50 (HCC 2998): > 100 µM (inactive) | GI50 (HCT-116): > 100 µM (inactive) | GI50 (HCT-15): > 100 µM | GI50 (HL-60): 11.7 µM (inactive) | GI50 (HOP-62): > 100 µM (inactive) | GI50 (HOP-92): > 100 µM (inactive) | GI50 (HT-29): > 100 µM (inactive) | GI50 (Hs-578T): > 100 µM (inactive) | GI50 (IGROV-1): > 100 µM (inactive) | GI50 (K562): > 100 µM (inactive) | GI50 (KM12): > 100 µM (inactive) | GI50 (LOX IMVI): > 100 µM (inactive) | GI50 (M14): > 100 µM (inactive) | GI50 (MCF7): > 100 µM (inactive) | GI50 (MDA-MB-231): > 100 µM (inactive) | GI50 (MDA-MB-435): > 100 µM (inactive) | GI50 (MDA-N): > 100 µM (inactive) | GI50 (MOLT-4): > 100 µM (inactive) | GI50 (Malme-3M): > 100 µM (inactive) | GI50 (NCI-H226): > 100 µM (inactive) | GI50 (NCI-H23): > 100 µM (inactive) | GI50 (NCI-H522): > 100 µM (inactive) | GI50 (NCI/ADR-RES): > 100 µM (inactive) | GI50 (OVCAR-3): > 100 µM (inactive) | GI50 (OVCAR-4): > 100 µM (inactive) | GI50 (OVCAR-5): > 100 µM (inactive) | GI50 (OVCAR-8): > 100 µM (inactive) | GI50 (PC-3): > 100 µM (inactive) | GI50 (RPMI-8226): > 100 µM (inactive) | GI50 (RXF 393): > 100 µM (inactive) | GI50 (SF-268): 92.3 µM (inactive) | GI50 (SF-295): > 100 µM (inactive) | GI50 (SF-539): > 100 µM (inactive) | GI50 (SK-MEL-28): > 100 µM (inactive) | GI50 (SK-MEL-2): > 100 µM (inactive) | GI50 (SK-MEL-5): > 100 µM (inactive) | GI50 (SK-OV-3): > 100 µM (inactive) | GI50 (SN12C): > 100 µM (inactive) | GI50 (SNB-19): > 100 µM (inactive) | GI50 (SNB-75): > 100 µM (inactive) | GI50 (SR): > 100 µM (inactive) | GI50 (SW-620): > 100 µM (inactive) | GI50 (T47D): > 100 µM (inactive) | GI50 (TK-10): > 100 µM (inactive) | GI50 (U-251): > 100 µM (inactive) | GI50 (UACC-257): > 100 µM (inactive) | GI50 (UACC-62): > 100 µM (inactive) | GI50 (UO-31): > 100 µM (inactive)
